Test results: the supplement of paper PMC10627819

How the values were obtained:
B. subtilis 168 [1] = assay: Bliss interaction score (quartile over a dose matrix) (fitness difference); higher = more antagonism (negative = synergy)
Summary of the method: (§1)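 Fitness was derived from optical density at entry into stationary phase, divided by the robust mean of the no-drug wells on the same plate. That reading was taken as OD595, and the ratio was capped at 1. Single-drug fitness was inferred from the combination data. The Bliss score, observed fitness minus the expected product of single-drug fitness, was summarised as quartiles over technical, biological and donor/recipient replicates.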

S. aureus DSM 20231 [2] = assay: as above
Summary of the method: as §1

S. pneumoniae D39V [3] = assay: as above
Summary of the method: as §1

S. aureus Newman [4] = assay: as above
Summary of the method: as §1

B. subtilis 168 [5] = assay: fitness (endpoint OD595 vs no drug) (fraction); higher = more growth
Summary of the method: (§2)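 Growth medium was TSB, LB Lennox or CY, and plates were kept at 37 °C. Inoculation was at OD595 0.01 in 384-well plates, at 30 µl per well or 55 µl for S. pneumoniae. OD595 was monitored every 30 min for 14 h and background-subtracted using the first reading. Fitness is the optical density on entering stationary phase divided by the robust mean of no-drug controls, with values capped at 1.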

S. aureus DSM 20231 [6] = assay: as above
Summary of the method: as §2

S. pneumoniae D39V [7] = assay: as above
Summary of the method: as §2

S. aureus Newman [8] = assay: as above
Summary of the method: as §2
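Throughout, for Bliss interaction score (quartile over a dose matrix): first quartile when negative (synergy) and third quartile when positive (antagonism).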

COc1c(N2C[C@@H]3CCCN[C@@H]3C2)c(F)cc2c(=O)c(C(=O)O)cn(C3CC3)c12 [Moxifloxacin] + CN[C@@H]1[C@H](O)[C@H](NC)[C@H]2O[C@@]3(O)C(=O)C[C@@H](C)O[C@H]3O[C@@H]2[C@H]1O [Spectinomycin]
Settings | Bliss interaction score
B. subtilis 168 [1] | -0.0287
S. aureus DSM 20231 [2] | -0.0426
S. aureus Newman [4] | -0.0569
S. pneumoniae D39V [3] | 0.0328

fitness
Settings | partner 2 µg/mL | partner 4 µg/mL | partner 8 µg/mL | partner 16 µg/mL
B. subtilis 168 [5], first compound 0.0312 µg/mL | 0.0488 | 0.0437 | 0.0518 | –
B. subtilis 168 [5], first compound 0.0625 µg/mL | 0.0414 | 0.0348 | 0.0153 | –
B. subtilis 168 [5], first compound 0.125 µg/mL | 0.026 | 0.0367 | 0.0296 | –
B. subtilis 168 [5], first compound 2 µg/mL | 0.0229 | 0.0184 | 0.0086 | –
B. subtilis 168 [5], first compound 4 µg/mL | 0.0296 | 0.0084 | 0.0039 | –
B. subtilis 168 [5], first compound 8 µg/mL | 0.0255 | 0.02 | 0.0092 | –
S. aureus DSM 20231 [6], first compound 0.0075 µg/mL | – | 0.822 | 0.848 | 0.731
S. aureus DSM 20231 [6], first compound 0.015 µg/mL | – | 0.725 | 0.734 | 0.743
S. aureus DSM 20231 [6], first compound 0.03 µg/mL | – | 0.654 | 0.74 | 0.694
S. aureus Newman [8], first compound 0.0075 µg/mL | – | 0.742 | 0.748 | 0.7
S. aureus Newman [8], first compound 0.015 µg/mL | – | – | – | 0.497
S. aureus Newman [8], first compound 0.03 µg/mL | – | – | 0.0882 | 0.0514
S. pneumoniae D39V [7], first compound 0.005 µg/mL | – | 0.923 | 0.936 | 0.82
S. pneumoniae D39V [7], first compound 0.01 µg/mL | – | 0.944 | 0.93 | 0.836
S. pneumoniae D39V [7], first compound 0.02 µg/mL | – | 0.896 | 0.843 | 0.796

one replicate
Settings | fitness
S. aureus DSM 20231 [6], first compound 0.0075 µg/mL, partner 32 µg/mL | 0.666
S. aureus DSM 20231 [6], first compound 0.0075 µg/mL, partner 64 µg/mL | 0.0692
S. aureus DSM 20231 [6], first compound 0.015 µg/mL, partner 32 µg/mL | 0.656
S. aureus DSM 20231 [6], first compound 0.015 µg/mL, partner 64 µg/mL | 0.0534
S. aureus DSM 20231 [6], first compound 0.03 µg/mL, partner 32 µg/mL | 0.625
S. aureus DSM 20231 [6], first compound 0.03 µg/mL, partner 64 µg/mL | 0.0231
S. aureus DSM 20231 [6], first compound 0.06 µg/mL, partner 4 µg/mL | 0.664
S. aureus DSM 20231 [6], first compound 0.06 µg/mL, partner 8 µg/mL | 0.675
S. aureus DSM 20231 [6], first compound 0.06 µg/mL, partner 16 µg/mL | 0.673
S. aureus DSM 20231 [6], first compound 0.12 µg/mL, partner 4 µg/mL | 0.505
S. aureus DSM 20231 [6], first compound 0.12 µg/mL, partner 8 µg/mL | 0.457
S. aureus DSM 20231 [6], first compound 0.12 µg/mL, partner 16 µg/mL | 0.523
S. aureus Newman [8], first compound 0.0075 µg/mL, partner 32 µg/mL | 0.464
S. aureus Newman [8], first compound 0.0075 µg/mL, partner 64 µg/mL | 0.0581
S. aureus Newman [8], first compound 0.015 µg/mL, partner 32 µg/mL | 0.294
S. aureus Newman [8], first compound 0.015 µg/mL, partner 64 µg/mL | 0.047
S. aureus Newman [8], first compound 0.03 µg/mL, partner 32 µg/mL | 0.0318
S. aureus Newman [8], first compound 0.03 µg/mL, partner 64 µg/mL | 0.0289
S. pneumoniae D39V [7], first compound 0.0037 µg/mL, partner 4 µg/mL | 0.897
S. pneumoniae D39V [7], first compound 0.0037 µg/mL, partner 8 µg/mL | 0.83
S. pneumoniae D39V [7], first compound 0.0075 µg/mL, partner 4 µg/mL | 0.912
S. pneumoniae D39V [7], first compound 0.0075 µg/mL, partner 8 µg/mL | 0.816
S. pneumoniae D39V [7], first compound 0.015 µg/mL, partner 4 µg/mL | 0.891
S. pneumoniae D39V [7], first compound 0.015 µg/mL, partner 8 µg/mL | 0.813

CCC[C@@H]1C[C@@H](C(=O)N[C@@H]([C@H]2O[C@H](SC)[C@H](O)[C@@H](O)[C@H]2O)[C@H](C)Cl)N(C)C1 [Clindamycin] + CN[C@@H]1[C@H](O)[C@H](NC)[C@H]2O[C@@]3(O)C(=O)C[C@@H](C)O[C@H]3O[C@@H]2[C@H]1O [Spectinomycin]
Settings | Bliss interaction score
B. subtilis 168 [1] | -0.0853
S. aureus DSM 20231 [2] | -0.0511
S. aureus Newman [4] | -0.147
S. pneumoniae D39V [3] | 0.0544

one replicate
Settings | fitness
B. subtilis 168 [5], first compound 0.0039 µg/mL, partner 2 µg/mL | 0.988
B. subtilis 168 [5], first compound 0.0039 µg/mL, partner 4 µg/mL | 0.98
B. subtilis 168 [5], first compound 0.0039 µg/mL, partner 8 µg/mL | ≥ 1
B. subtilis 168 [5], first compound 0.0078 µg/mL, partner 2 µg/mL | 0.897
B. subtilis 168 [5], first compound 0.0078 µg/mL, partner 4 µg/mL | 0.898
B. subtilis 168 [5], first compound 0.0078 µg/mL, partner 8 µg/mL | 0.904
B. subtilis 168 [5], first compound 0.0156 µg/mL, partner 2 µg/mL | 0.904
B. subtilis 168 [5], first compound 0.0156 µg/mL, partner 4 µg/mL | 0.903
B. subtilis 168 [5], first compound 0.0156 µg/mL, partner 8 µg/mL | 0.851
S. aureus DSM 20231 [6], first compound 0.0312 µg/mL, partner 32 µg/mL | 0.105
S. aureus DSM 20231 [6], first compound 0.0312 µg/mL, partner 64 µg/mL | 0.0235
S. aureus DSM 20231 [6], first compound 0.0625 µg/mL, partner 32 µg/mL | 0.0623
S. aureus DSM 20231 [6], first compound 0.0625 µg/mL, partner 64 µg/mL | 0.0291
S. aureus DSM 20231 [6], first compound 0.125 µg/mL, partner 32 µg/mL | 0.0592
S. aureus DSM 20231 [6], first compound 0.125 µg/mL, partner 64 µg/mL | 0.0326
S. aureus Newman [8], first compound 0.0312 µg/mL, partner 32 µg/mL | 0.0927
S. aureus Newman [8], first compound 0.0312 µg/mL, partner 64 µg/mL | 0.0581
S. aureus Newman [8], first compound 0.0625 µg/mL, partner 32 µg/mL | 0.0269
S. aureus Newman [8], first compound 0.0625 µg/mL, partner 64 µg/mL | 0.0621
S. aureus Newman [8], first compound 0.125 µg/mL, partner 32 µg/mL | 0.0191
S. aureus Newman [8], first compound 0.125 µg/mL, partner 64 µg/mL | 0.0457
S. pneumoniae D39V [7], first compound 0.015 µg/mL, partner 4 µg/mL | 0.935
S. pneumoniae D39V [7], first compound 0.015 µg/mL, partner 8 µg/mL | 0.899
S. pneumoniae D39V [7], first compound 0.03 µg/mL, partner 4 µg/mL | 0.765
S. pneumoniae D39V [7], first compound 0.03 µg/mL, partner 8 µg/mL | 0.754
S. pneumoniae D39V [7], first compound 0.06 µg/mL, partner 4 µg/mL | 0.657
S. pneumoniae D39V [7], first compound 0.06 µg/mL, partner 8 µg/mL | 0.671

fitness
Settings | partner 2 µg/mL | partner 4 µg/mL | partner 8 µg/mL | partner 16 µg/mL
B. subtilis 168 [5], first compound 0.0625 µg/mL | 0.508 | 0.46 | 0.383 | –
B. subtilis 168 [5], first compound 0.125 µg/mL | 0.37 | 0.365 | 0.251 | –
B. subtilis 168 [5], first compound 0.25 µg/mL | 0.363 | 0.327 | 0.155 | –
S. aureus DSM 20231 [6], first compound 0.125 µg/mL | – | 0.0615 | 0.0809 | 0.0399
S. aureus Newman [8], first compound 0.0312 µg/mL | – | 0.564 | 0.579 | 0.466
S. aureus Newman [8], first compound 0.125 µg/mL | – | 0.0748 | 0.109 | 0.0841
S. pneumoniae D39V [7], first compound 0.0125 µg/mL | – | 0.672 | 0.656 | 0.601
S. pneumoniae D39V [7], first compound 0.025 µg/mL | – | 0.457 | 0.409 | 0.396
S. pneumoniae D39V [7], first compound 0.05 µg/mL | – | 0.248 | 0.231 | 0.19
